Data published in US12103952B2, “Methods for expressing proteins in axons” (Cornell University, priority 2010, dated 2024).

System: DRG axons
Experiment: IRES-driven myr-dEGFP Sindbis reporter in compartmented cultures with translation inhibitors
Type: cell-based, rat
Details: added for 48 hrs to the axonal compartment
Description: FIGS. 1A-O are data showing that the compartmentalization of DRGs enables axon-specific manipulations and quantitative measurement using fluorescent probes. (A) Immunofluorescence analysis of 3 DIV DRG cultures+/−5-FdU. […] Scale bar, 50 μm. […] Scale bar, 50 μm. (C) Immunofluorescence analysis of compartmented cultures (montage micrographs). Retrogradely labeled (WGA-Alexa555, red) DRG axons fasciculate and grow under the 1 mm divider into the axon compartment. Axons defasciculate as they enter the axon compartment. Cell bodies (DAPI, blue) are restricted to the cell body compartment. Only WGA-Alexa555 labeled cell bodies are included in data sets, as they comprise the population of neurons extending axons across the divider. (D) Dissociated DRG neurons (5 DIV) in compartmented cultures were treated with NGF in either or both compartments. […] Numbers on bars represent n cells per condition. (E, F) DRG axons in compartmented cultures were infected with a Sindbis virus encoding myr-dEGFP under the control of an IRES by applying the virus to both cell body and axonal compartments. […] All compartments were maintained in identical NGF-containing media throughout the course of the experiment. […] Incomplete abolishment of FISH signals, relative to siRNA-treated axons, reflects residual alternatively-spliced CREBβ transcripts in these hypomorphic animals (Blendy et al., EMBO Journal 15, 1098-1106 (1996)). Additionally, axonal mRNAs are trafficked as mRNA-ribosome complexes, and impaired CREBβ mRNA-ribosome interactions due to the poor Kozak site (Blendy et al., EMBO Journal 15, 1098-1106 (1996)) in this transcript may lead to inefficient trafficking. Scale bar, 10 μm. (H) Quantification of data in (G). *p<0.0001. Numbers on bars represent n axons per condition. (I) Similar to the experiment in FIG. 4A, except equivalent numbers of cell bodies and axon terminals were used for Western blotting. DRG explants were cultured in Boyden chambers, and the upper compartment was incubated in 0 ng/ml NGF. The lower compartment was incubated in either 0 ng/ml NGF or 100 ng/ml NGF for 3 hours. Axon lysates (˜10^4 cells) were prepared from the underside of the membrane and analysed by Western blot. As in FIG. 4A, only CREB was detected in axons, and CREB localization in […] axons was dependent on NGF in the culture media. (J) DRG cultures were transfected with CREB siRNA and CREB levels were detected using a CREB antibody. […] Scale bar, 20 μm. (K) Quantification of data in (J). *p<0.001. Numbers on bars represent n axons per condition. (L) E15 DRG neuronal lysate (10 μg) was subjected to immunoblotting with the CST-9192 CREB antibody. (M) CREB was detected by immunofluorescence using CREB antibody sc-186 (see I, FIG. 4A, and Table S4). Scale bar 10 μm. […] (0) Quantification of data in (M). *p<0.0001. […]

| SMILES | myr-EGFP fluorescence in the axonal compartment | myr-EGFP levels in the cell body compartment |
| --- | --- | --- |
| C[C@@H]1C[C@@H]([C@H](O)CC2CC(=O)NC(=O)C2)C(=O)[C@@H](C)C1 [cycloheximide] | loss of myr-EGFP fluorescence | no significant effect |
| COc1ccc(C[C@H]2NC[C@H](O)[C@H]2OC(C)=O)cc1 [anisomycin] | loss of myr-EGFP fluorescence | no significant effect |
